# pIC50: −log10 of the molar value. Like-named read-outs stand apart in the source and are kept apart here.
# Columns and labels:
# [1] = Incorporation of antifungal agent into LDL by NaDoc dissociation-reconstitution; type: physicochemical; settings: 1,6 mg LDL, 482 µg of agent, dialysis
# Protocol: On ajoute à 1,6 mg de LDL préalablement dialysées contre le tampon C, 10 mg de NaDoc solide et on laisse réagir 30 minutes à température ambiante. On ajoute à la préparation 2,8 ml d'une solution NaDoc 20 mM, Na2COs 50 mM, NaCi 50 mM, pH 10 contenant 482 µg de CT4000A ou 482 µg de CT040013. Les échantillons sont dialysés à 4° C contre trois fois 1 litre de tampon B.
# Le pourcentage de récupération en LDL, en CT040013 et en NaDoc est déterminé au terme du processus de reconstitution (figure 13).
# Il est également possible de rapporter la masse de substance incorporée par mole de LDL. Les résultats obtenus pour le CT04000A et la CT040013 sont respectivement de 0,4 et de 208 moles incorporés par mole de LDL.
# [2] = tested on: Candida tropicalis; experiment: Intracellular infection model: J77468 macrophages infected with Candida tropicalis; type: cell-based; settings: 2 % de sérum de veau foetal
# Protocol: (§1) La lignée continue de macrophages J77468 d'origine murine provient d'un clonage de la souche J774 ATCC, et est cultivée en milieu RPMI 1640 additionné de glutamine 2 mM, 10% de sérum de veau foetal (décomplémenté 60 min. à 56°) et de 10 mM Hepes (pH 7.2). Une suspension de 5 10^6 cellules/ml sont infectées avec une culture de Candida tropicalis (5 10^5 levures/ml) provenant d'une culture de nuit dans de la casitone. Le milieu d'infection utilisé est du RPMI contenant 2 % de sérum de veau nouveau-né et 10 mM Hepes (pH 7.2).
# (§2) Après 3 h d'incubation à 37° dans un mélange d'air 10 % C02, la phagocytose des levures est complète. La suspension cellulaire macrophages-Candida est centrifugée, lavée abondamment et répartie à raison de 10^5 macrophages infectés/alvéole dans des boîtes à 24 alvéoles contenant une lamelle de verre (diamètre 14 mm). Après 3 h de phagocytose (To), sur 100 macrophages, 32 contiennent de 1 à 6 Candida/macrophage, l'infection moyenne étant de 2 Candida/macrophage.
# (§3) Toutes les levures ont été phagocytées sauf rares exceptions (estimation au microscope optique après coloration au May-Grünwald Giemsa). Douze concentrations différentes des drogues de référence et des drogues encapsulées dans les LDL sont distribuées dans les boîtes contenant les macrophages infectés.
# (§4) L'évaluation de l'efficacité d'une drogue se fait à chaque concentration. Testées après 18 h d'incubation (37°, dans un mélange air-10 % C02), les levures se multiplient d'abord au sein des cellules hôtes, puis dans le milieu extracellulaire. Le taux de macrophages infectés est alors de 75 % chez les témoins. Une cellule peut contenir de 1 à plus de 20 Candida/cellule, la majorité contient de 2 à 6 levures/cellule. Le milieu de culture contient 10^8 Candida extracellulaires/ml (comptage dans une cellule de Burker).
# L'activité d'une drogue encapsulée ou non dans les LDL ou Ac-LDL par rapport à un antifongique de référence, le kétoconazole (K), est déterminé par la concentration micromolaire en drogue réduisant de 50 % le nombre de macrophages infectés par les Candida (=C150). Signalons que parallèlement à la réduction au cours du traitement, du taux de cellules infectées, le nombre de Candida par macrophage infecté diminue fortement (de 1 à 3 levures/cellule).
# Le milieu de culture est RPMI + glutamine 2 mM + Hepes 10 mM + 2 % de sérum de veau foetal.
# [3] = tested on: macrophages J77468; experiment: Toxicity for J77468 macrophages (MTT reduction); type: cell-based, murine; settings: for % de viabilité cellulaire*: 18 h, MTT
# Protocol: as §1
# La viabilité des macrophages J77468 cultivés dans du milieu contenant l'agent antifongique encapsulé ou non dans les LDL figure au Tableau 5. K et K01 sont toxiques aux concentrations nécessaires pour réduire de 50 % l'infection intracellulaire (C1250) contrairement au LDL-K01 pour lequel aucune toxicité n'a pu être détectée.
# [4] = tested on: C. tropicalis; experiment: Extracellular infection in the infected-macrophage model; type: cell-based; settings: Candida tropicalis, read-out: CIext50^(a)
# Protocol: as §1, §2, §3, §4
# L'action des AF encapsulés sur une infection extracellulaire peut être évaluée de deux manières : d'une part en déterminant le nombre de Candida extracellulaires dans un modèle d'infection intracellulaire (voir VIII § 1.1.), d'autre part en mesurant la concentration minimale inhibitrice (CMI) de ces composés par la méthode de dilutions successives dans des boîtes à multipuits (milieu RPMI).
structure (smiles),measurement,setting,value
CCCCCCCC/C=C\CCCCCCCC(=O)N1CCN(c2ccc(OC[C@H]3CO[C@](Cn4ccnc4)(c4ccc(Cl)cc4Cl)O3)cc2)CC1 [KO1],moles incorporés par mole de LDL,[1],208 moles incorporés par mole de LDL
same,CI50 K/AF,[2],"0,6"
same,pIC50,"[2]; Candida tropicalis, Macrophage, micromolar concentration reducing infected macrophages by 50 %, 18 h, read-out: CI50 (the source's name)",4.07
same,toxicité aux concentrations nécessaires pour réduire de 50 % l'infection intracellulaire,[3],toxiques
same,% de viabilité cellulaire*,"[3]; Concentration 0,78 µM","67,72%"
same,% de viabilité cellulaire*,"[3]; Concentration 1,56 µM","67,72%"
same,% de viabilité cellulaire*,"[3]; Concentration 3,13 µM","67,36%"
same,% de viabilité cellulaire*,"[3]; Concentration 6,25 µM","60,70%"
same,% de viabilité cellulaire*,"[3]; Concentration 12,50 µM","69,47%"
same,% de viabilité cellulaire*,"[3]; Concentration 25,00 µM","67,71%"
same,% de viabilité cellulaire*,"[3]; Concentration 50,00 µM","71,22%"
same,% de viabilité cellulaire*,"[3]; Concentration 100,00 µM, versus untreated control","38,94%"
same,pIC50,[4]; addition de 2 % Pl.H. (plasma humain),4.30
same,pIC50,[4]; addition de 2 % SVF (sérum de veau foetal),5.08

# From patent EP0277849A1, “Incorporation of one or more lipophilic, active principles into lipoproteins, lipoproteins obtained and pharmaceutical compositions containing them” (IRE-CELLTARG S.A., priority 1987, dated 1988)
